pEC50: −log10 of the molar value.
System: ATF4 luciferase reporter (human full-length ATF4 5'-UTR fused to firefly luciferase) in HEK293T cells
Experiment: ATF4-Luc assay (in vitro model of VWMD): HEK293T cells carrying ATF4 luciferase reporter, tunicamycin-treated
Type: cell-based
Settings: Homo sapiens, HEK-293T, 1 μg/mL tunicamycin, 7 hours, One Glo luminescence
Method: In order to test exemplary compounds of the invention in a cellular context, a stable VWMD cell line was first constructed. The ATF4 reporter was prepared by fusing the human full-length ATF4 5′-UTR (NCBI Accession No. BC022088.2) in front of the firefly luciferase (FLuc) coding sequence lacking the initiator methionine as described in Sidrauski et al (eLife 2013). The construct was used to produce recombinant retroviruses using standard methods and the resulting viral supernatant was used to transduce HEK293T cells, which were then subsequently selected with puromycin to generate a stable cell line.
HEK293T cells carrying the ATF4 luciferase reporter were plated on polylysine coated 384-well plates (Greiner Bio-one) at 30,000 cells per well. Cells were treated the next day with 1 μg/mL tunicamycin and 200 nM of a compound of Formula (I) for 7 hours. Luminescence was measured using One Glo (Promega) as specified by the manufacturer. Cells were maintained in DMEM with L-glutamine supplemented with 10% heat-inactivated FBS (Gibco) and Antibiotic-Antimycotic solution (Gibco).
Table 2 below summarizes the EC50 data obtained using the ATF4-Luc assay for exemplary compounds of the invention.

Structure (SMILES) | pEC50
O=C(NC12CCC(NC(=O)C3CC(=O)c4cc(Cl)ccc4O3)(CC1)CC2)c1cnc(C(F)F)cn1 (centres unmarked) [Compound 304, N-{4-[(6-chloro-4-oxo-3,4-dihydro-2H-1-benzopyran-2-carbonyl)amino]bicyclo[2.2.2]octan-1-yl}-5-(difluoromethyl)pyrazine-2-carboxamide] | 5.70 to 6.30
O=C(COc1ccc(Cl)c(F)c1)NC12CC(NC(=O)c3cc(=O)c4ccc(O)cc4o3)(C1)C2 [Compound 295, N-{3-[2-(4-chloro-3-fluorophenoxy)acetamido]bicyclo[1.1.1]pentan-1-yl}-7-hydroxy-4-oxo-4H-1-benzopyran-2-carboxamide] | < 5.70
O=C(COc1ccc(Cl)c(F)c1)NC12CCC(NC(=O)[C@H]3C[C@@H](O)c4cc(Cl)ccc4O3)(CC1)NC2=O (racemic) [Compound 364, rac-(2R,4R)-6-chloro-N-{4-[2-(4-chloro-3-fluorophenoxy)acetamido]-3-oxo-2-azabicyclo[2.2.2]octan-1-yl}-4-hydroxy-3,4-dihydro-2H-1-benzopyran-2-carboxamide] | > 8.00
C[C@]1(C(=O)NC23CC(NC(=O)COc4ccc(Cl)c(F)c4)(C2)C3)Oc2ccc(Cl)cc2C1=O [Compound 259, (2S)-5-chloro-N-{3-[2-(4-chloro-3-fluorophenoxy)acetamido]bicyclo[1.1.1]pentan-1-yl}-2-methyl-3-oxo-2,3-dihydro-1-benzofuran-2-carboxamide] | 5.70 to 6.30
O=C(COc1ccc(Cl)c(F)c1)NC12CC(NC(=O)C3CC(O)c4ccc(Cl)cc4O3)(C1)C2 (centres unmarked) [Compound 247, 7-chloro-N-{3-[2-(4-chloro-3-fluorophenoxy)acetamido]bicyclo[1.1.1]pentan-1-yl}-4-hydroxy-3,4-dihydro-2H-1-benzopyran-2-carboxamide] | > 8.00
Cc1cc2c(cc1F)[C@@H](O)C[C@@H](C(=O)NC13CC(NC(=O)COc4ccc(Cl)c(F)c4)(C1)C3)O2 [Compound 242, (2S,4S)—N-{3-[2-(4-chloro-3-fluorophenoxy)acetamido]bicyclo[1.1.1]pentan-1-yl}-6-fluoro-4-hydroxy-7-methyl-3,4-dihydro-2H-1-benzopyran-2-carboxamide] | > 8.00
O=C(COc1ccc(Cl)c(F)c1)NC12CC(NC(=O)c3cc(=O)c4cc(O)ccc4o3)(C1)C2 [Compound 346, N-{3-[2-(4-chloro-3-fluorophenoxy)acetamido]bicyclo[1.1.1]pentan-1-yl}-6-hydroxy-4-oxo-4H-1-benzopyran-2-carboxamide] | 5.70 to 6.30
COC1CC(C(=O)NC23CC(NC(=O)COc4ccc(Cl)c(F)c4)(C2)C3)Oc2ccc(F)cc21 (centres unmarked) [Compound 330, N-{3-[2-(4-chloro-3-fluorophenoxy)acetamido]bicyclo[1.1.1]pentan-1-yl}-6-fluoro-4-methoxy-3,4-dihydro-2H-1-benzopyran-2-carboxamide] | 6.60 to 7.30
O=C(COc1ccc(Cl)c(F)c1)NC12CC(NC(=O)c3cc(=O)c4cc(F)c(Cl)cc4o3)(C1)C2 [Compound 232, 7-chloro-N-{3-[2-(4-chloro-3-fluorophenoxy)acetamido]bicyclo[1.1.1]pentan-1-yl}-6-fluoro-4-oxo-4H-1-benzopyran-2-carboxamide] | > 8.00
O=C(COc1ccc(Cl)c(F)c1)NC12CC(NC(=O)C3CC(NC4(CO)CC4)c4cc(Cl)ccc4O3)(C1)C2 (centres unmarked) [Compound 339, 6-chloro-N-{3-[2-(4-chloro-3-fluorophenoxy)acetamido]bicyclo[1.1.1]pentan-1-yl}-4-{[1-(hydroxymethyl)cyclopropyl]amino}-3,4-dihydro-2H-1-benzopyran-2-carboxamide] | 7.30 to 8.00
O=C(COc1ccc(Cl)c(F)c1)NC12CC(NC(=O)[C@@H]3C[C@@H](O)c4cc(Cl)ccc4O3)(C1)C2 [Compound 198, (2S,4R)-6-chloro-N-{3-[2-(4-chloro-3-fluorophenoxy)acetamido]bicyclo[1.1.1]pentan-1-yl}-4-hydroxy-3,4-dihydro-2H-1-benzopyran-2-carboxamide] | > 8.00
O=C(COc1cc(F)c2cn[nH]c2c1)NC12CC(NC(=O)[C@H]3C[C@@H](O)c4cc(Cl)ccc4O3)(C1)C2 [Compound 351, (2R,4R)-6-chloro-N-(3-{2-[(4-fluoro-1H-indazol-6-yl)oxy]acetamido}bicyclo[1.1.1]pentan-1-yl)-4-hydroxy-3,4-dihydro-2H-1-benzopyran-2-carboxamide] | > 8.00
O=C(NC12CCC(NC(=O)[C@H]3C[C@@H](O)c4cc(Cl)ccc4O3)(C1)C2)c1ccc(OC(F)(F)F)cn1 [Compound 373, N-(4-{[(2R,4R)-6-chloro-4-hydroxy-3,4-dihydro-2H-1-benzopyran-2-carbonyl]amino}bicyclo[2.1.1]hexan-1-yl)-5-(trifluoromethoxy)pyridine-2-carboxamide] | 7.30 to 8.00
CN1CC(C(=O)NC23CC(NC(=O)COc4ccc(Cl)c(F)c4)(C2)C3)Oc2ccc(Cl)cc21 (single isomer, unassigned) [Compound 104] | > 8.00
O=C(COc1ccc(Cl)c(F)c1)N[C@@H]1C[C@@H]2O[C@H]1C[C@H]2NC(=O)[C@@H]1C[C@H](O)c2cc(Cl)ccc2O1 (racemic) [Compound 372, (2S,4S)-6-chloro-N-{(1RS,2SR,4RS,5SR)-5-[2-(4-chloro-3-fluorophenoxy)acetamido]-7-oxabicyclo[2.2.1]heptan-2-yl}-4-hydroxy-3,4-dihydro-2H-1-benzopyran-2-carboxamide] | 7.30 to 8.00
O=C(COc1ccc(Cl)c(F)c1)NC12CC(NC(=O)C3COc4cc(Cl)ccc4C3)(C1)C2 (centres unmarked) [Compound 345, 7-chloro-N-{3-[2-(4-chloro-3-fluorophenoxy)acetamido]bicyclo[1.1.1]pentan-1-yl}-3,4-dihydro-2H-1-benzopyran-3-carboxamide] | < 5.70
O=C(COc1ccc(Cl)c(F)c1)NC12CC(NC(=O)C3CC(NC4(C(=O)O)CC4)c4cc(Cl)ccc4O3)(C1)C2 (centres unmarked) [Compound 210, 1-{[6-chloro-2-({3-[2-(4-chloro-3-fluorophenoxy)acetamido]bicyclo[1.1.1]pentan-1-yl}carbamoyl)-3,4-dihydro-2H-1-benzopyran-4-yl]amino}cyclopropane-1-carboxylic acid] | 6.30 to 6.60
O=C(COc1cc(F)c2cn[nH]c2c1)NC12CCC(NC(=O)[C@H]3C[C@@H](O)c4cc(Cl)ccc4O3)(CC1)[C@@H](O)C2 [Compound 355, (2R,4R)-6-chloro-N-[(2S)-4-{2-[(4-fluoro-1H-indazol-6-yl)oxy]acetamido}-2-hydroxybicyclo[2.2.2]octan-1-yl]-4-hydroxy-3,4-dihydro-2H-1-benzopyran-2-carboxamide] | > 8.00
O=C(COc1ccc(Cl)c(F)c1)NC12CC(NC(=O)C3CC(NCC(F)(F)F)c4cc(Cl)ccc4O3)(C1)C2 (centres unmarked) [Compound 336, 6-chloro-N-{3-[2-(4-chloro-3-fluorophenoxy)acetamido]bicyclo[1.1.1]pentan-1-yl}-4-[(2,2,2-trifluoroethyl)amino]-3,4-dihydro-2H-1-benzopyran-2-carboxamide] | 6.30 to 6.60
O=C(COc1ccc(F)c(F)c1)NC12CC(NC(=O)[C@H]3C[C@@H](O)c4cc(Cl)ccc4O3)(C1)C2 [Compound 277, (2R,4R)-6-chloro-N-{3-[2-(3,4-difluorophenoxy)acetamido]bicyclo[1.1.1]pentan-1-yl}-4-hydroxy-3,4-dihydro-2H-1-benzopyran-2-carboxamide] | > 8.00
O=C(COc1ccc(Cl)c(F)c1)NC12CCC(NC(=O)[C@H]3C[C@@H](O)c4cc(Cl)ccc4O3)(C1)C2 (racemic) [Compound 296, rac-(2R,4R)-6-chloro-N-{4-[2-(4-chloro-3-fluorophenoxy)acetamido]bicyclo[2.1.1]hexan-1-yl}-4-hydroxy-3,4-dihydro-2H-1-benzopyran-2-carboxamide] | > 8.00
CN1c2ccc(Cl)cc2CC1C(=O)NC12CC(NC(=O)COc3ccc(Cl)c(F)c3)(C1)C2 (centres unmarked) [Compound 266, 5-chloro-N-{3-[2-(4-chloro-3-fluorophenoxy)acetamido]bicyclo[1.1.1]pentan-1-yl}-1-methyl-2,3-dihydro-1H-indole-2-carboxamide] | 6.60 to 7.30
CN1CC(C(=O)NC23CCC(NC(=O)COc4ccc(Cl)c(F)c4)(CC2)[C@@H](O)C3)Oc2ccc(Cl)cc21 (stereo partly drawn) [Compound 107, 6-chloro-N-{(3S)-4-[2-(4-chloro-3-fluorophenoxy)acetamido]-3-hydroxybicyclo[2.2.2]octan-1-yl}-4-methyl-3,4-dihydro-2H-1,4-benzoxazine-2-carboxamide] | > 8.00
O=C(COc1ccc(Cl)c(F)c1)NC12CCC(NC(=O)C3CC(=O)c4cc(Cl)ccc4O3)(CC1)C[C@@H]2O (stereo partly drawn) [Compound 199C, 6-chloro-N-{(3S)-4-[2-(4-chloro-3-fluorophenoxy)acetamido]-3-hydroxybicyclo[2.2.2]octan-1-yl}-4-oxo-3,4-dihydro-2H-1-benzopyran-2-carboxamide] | > 8.00
O=C(COc1ccc(Cl)c(F)c1)NC12CC(NC(=O)C3CC(=O)c4cc(F)c(F)cc4O3)(C1)C2 (centres unmarked) [Compound 248, N-{3-[2-(4-chloro-3-fluorophenoxy)acetamido]bicyclo[1.1.1]pentan-1-yl}-6,7-difluoro-4-oxo-3,4-dihydro-2H-1-benzopyran-2-carboxamide] | > 8.00
O=C(COc1ccc(Cl)c(F)c1)NC12CC(NC(=O)c3cc(=O)c4cc(Cl)ccc4o3)(C1)C2 [Compound 318, 6-chloro-N-{3-[2-(4-chloro-3-fluorophenoxy)acetamido]bicyclo[1.1.1]pentan-1-yl}-4-oxo-4H-1-benzopyran-2-carboxamide] | > 8.00
